Data published in patent publication US11498923B2 (Merck Sharp & Dohme Corp., priority 2017, dated 2022).
Where a name gives a salt, the structure may show the parent alone.

Each compound was assayed against T1, human A2a receptor (Homo sapiens, UniProt P29274) (assay: A2a receptor competition binding assay (Scintillation Proximity)). Settings: membranes from HEK293 cells expressing human A2a receptor; 0.5 nM tritiated ligand; Cheng-Prusoff; read-out: A2a Ki.
T1 construct: purchased Perkin-Elmer RBHA2AM400UA; host or cells: HEK293 cells, used as a membrane preparation
T1 sequence (P29274 whole entry): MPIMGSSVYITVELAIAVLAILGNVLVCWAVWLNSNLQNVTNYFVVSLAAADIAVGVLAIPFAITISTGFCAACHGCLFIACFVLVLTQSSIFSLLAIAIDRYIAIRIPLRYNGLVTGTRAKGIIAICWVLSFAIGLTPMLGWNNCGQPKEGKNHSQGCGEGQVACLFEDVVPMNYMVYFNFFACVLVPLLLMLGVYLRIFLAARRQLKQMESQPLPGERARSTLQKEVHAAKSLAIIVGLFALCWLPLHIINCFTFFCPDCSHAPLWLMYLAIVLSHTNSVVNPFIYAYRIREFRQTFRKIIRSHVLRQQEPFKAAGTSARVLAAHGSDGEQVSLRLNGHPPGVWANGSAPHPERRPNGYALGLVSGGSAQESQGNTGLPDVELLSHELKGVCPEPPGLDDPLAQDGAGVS
Description: Binding affinities of compounds of the invention for the human A2a receptor were determined in a competition binding assay using Scintillation Proximity technology. Thus, 0.3 μg of membranes from HEK293 cells expressing the human A2a receptor were incubated with a compound of the invention at concentrations ranging from 3000 nM to 0.15 nM in a reaction mixture containing also 0.5 nM of a tritiated form of 5-amino-7-[2-phenethyl]-2-(furan-2-yl)-7H-pyrazolo[4,3-e][1,2,4]triazolo[1,5-c]pyrimidine (the tritiated compound) and 100 μg of wheat germ agglutin-coated yttrium silicate SPA beads for one hour at room temperature with agitation. The beads were then allowed to settle to the bottom of the wells for 1 hr, after which the membrane-associated radioactivity was determined by scintillation counting in a TopCount microplate reader. Ki values were determined using the Cheng-Prusoff equation.
Summary of Materials and Methods Used in A2a Activity Determination:
HEK293 cells expressing the human, rat, dog or monkey adenosine 2a receptor (Purchased from Perkin-Elmer #RBHA2AM400UA).
The Tritiated compound was prepared according to published methods.
Wheat germ agglutinin-coated yttrium silicate SPA beads (GE Healthcare #RPNQ0023). Dilute to 25 mg/ml in assay buffer.
Assay Buffer was prepared using Dulbecco's calcium and magnesium free phosphate buffered saline+10 mMMgCl2
Adenosine deaminase from calf intestine, 10 mg/2 ml (Roche #10 102 105 001).
A2a antagonist standard (9-chloro-1-(2-furanyl)-[1,2,4]triazolo1,5-c]quinazolin-5-amine from Tocris Bioscience)
Make eight 1:3 serial dilutions in 100% DMSO from a 3 mM compound stock
Transfer 50 nl of compound into a 384-well OptiPlate (Perkin Elmer).
Typically, final concentrations of compound used in the assay ranged from 3000 nM to 0.152 nM.
Dilute a solution of the Tritiated compound to 1.25 nM in assay buffer. This is a 2.5× solution. The final concentration in the assay is 0.5 nM. Calculate the concentration by counting two 5 μl aliquots.
Use 0.25 ug of membrane/well. Dilute membranes to 9.7 μg/ml in assay buffer. Treat with 20 ug/ml adenosine deaminase (ADA) for 15 minutes at room temperature to degrade endogenous adenosine.
Use 100 μg/well wheat germ agglutinin-coated yttrium silicate SPA beads.
Mix ADA-treated membranes and SPA beads together for 30 min prior to assay.
To the Perkin-Elmer Optiplate-384 containing the compound titration add 20 μl of 2.5× solution of the Tritiated compound and 30 μl of the membrane-bead mixture. Incubate for one hour at room temperature with agitation.
Include total binding (assay buffer+1% DMSO) and non-specific binding (CGS15943, 1 μM) wells.
Allow the beads to settle for one hour.
A curve fitting program (i.e., Prism, Activity Base, Chemcart) is used to determine the EC50. The Ki value is calculated using the Cheng-Prusoff equation. Ki=EC50/(1+(radioligand concentration/Kd))

Ki [nM] | SMILES
24 | COc1cccc2c1nc(N)n1cc(C(=O)N3CCC4OCCC43)nc21 (stereo not drawn) [Ex-220, (5-amino-7-methoxyimidazo[1,2-c]quinazolin-2-yl)(hexahydro-4H-furo[3,2-b]pyrrol-4-yl)methanone]
2 | Nc1nc2c(F)cccc2c2nc(C(=O)NCc3ccccc3N3CCOCC3)cn12 [Ex-250, 5-amino-7-fluoro-N-(2-morpholinobenzyl)imidazo [1,2-c]quinazoline-2-carboxamide]
44 | Cc1cccc(C(=O)N2CCC(Cc3cn4c(N)nc5c(F)cccc5c4n3)CC2)n1 [Ex-324, (4-((5-amino-7-fluoroimidazo[1,2-c]quinazolin-2-yl)-methyl)piperidin-1-yl)(6-methylpyridin-2-yl)methanone]
45 | Nc1nc2c(F)cccc2c2nc(CC3CCN(Cc4ccccc4)CC3)cn12 [Ex-304, 2-((1-benzylpiperidin-4-yl)methyl)-7-fluoro-imidazo[1,2-c]quina-zolin-5-amine]
5.6 | COc1cccc2c1nc(N)n1cc(C(=O)N3CCCCC34CC4)nc21 [Ex-198, (5-amino-7-methoxyimidazo[1,2-c]quinazolin-2-yl)(4-azaspiro[2.5]octan-4-yl)methanone]
5.3 | Nc1nc2c(F)cccc2c2nc(C(=O)NCc3cccc(Br)n3)cn12 [Ex-294, 5-amino-N-((6-bromopyridin-2-yl)methyl)-7-fluoroimidazo[1,2-c]quinazoline-2-carboxamide]
15 | COc1cccc2c1nc(N)n1cc(C(=O)N3CCCC4(C3)CC(C)(C)OC4=O)nc21 (stereo not drawn) [Ex-229, 7-(5-amino-7-methoxyimidazo[1,2-c]quinazoline-2-carbonyl)-3,3-dimethyl-2-oxa-7-azaspiro[4.5]decan-1-one]
34 | COc1cccc2c1nc(N)n1cc(C(=O)N3CCCC(OC)C3)nc21 (stereo not drawn) [Ex-169, (5-amino-7-methoxyimidazo[1,2-c]quinazolin-2-yl)(3-methoxypiperidin-1-yl)methanone]
10 | COc1cccc2c1nc(N)n1cc(C(=O)N3CCC[C@@H]3C)nc21 [Ex-216, (S)-(5-amino-7-methoxyimidazo[1,2-c]quinazolin-2-yl)(2-methylpyrrolidin-1-yl)methanone]
210 | COc1cccc2c1nc(N)n1cc(C(=O)N3CC(C)(C)OC(C)(C)C3)nc21 [Ex-223, (5-amino-7-methoxyimidazo[1,2-c]quinazolin-2-yl)(2,2,6,6-tetramethylmorpholino) methanone]
260 | COc1cccc2c1nc(N)n1cc(C(=O)N3CCC(=O)C(C(C)C)C3)nc21 (stereo not drawn) [Ex-199, 1-(5-amino-7-methoxyimidazo[1,2-c]quinazoline-2-carbonyl)-3-isopropylpiperidin-4-one]
86 | CC(C)(C)OC(=O)N1CCCC2(CCN(C(=O)c3cn4c(N)nc5c(F)cccc5c4n3)CC2)C1 [Ex-265, tert-butyl 9-(5-amino-7-fluoroimidazo[1,2-c]quinazoline-2-carbonyl)-2,9-diazaspiro[5.5]undecane-2-carboxylate]
12 | COc1cccc2c1nc(N)n1cc(C(=O)N3CCCC4(CCCCO4)C3)nc21 (stereo not drawn) [Ex-204, (5-amino-7-methoxyimidazo[1,2-c]quinazolin-2-yl)(1-oxa-8-azaspiro[5.5]undecan-8-yl)methanone]
18 | Nc1nc2c(F)cccc2c2nc(C(=O)NCc3ccccc3CN3CCN(c4ccc(F)cc4F)CC3)cn12 [Ex-249, 5-amino-N-(2-((4-(2,4-difluorophenyl)piperazin-1-yl)methyl)benzyl)-7-fluoroimidazo[1,2-c]quinazoline-2-carboxamide]
3.6 | COc1cccc2c1nc(N)n1cc(C(=O)N3CCC[C@H]3CF)nc21 [Ex-219, (S)-(5-amino-7-methoxyimidazo[1,2-c]quinazolin-2-yl)(2-(fluoromethyl)pyrrolidin-1-yl)methanone]
35 | COc1cccc2c1nc(N)n1cc(C(=O)N3C[C@@H]4C[C@H]3CO4)nc21 [Ex-225, (5-amino-7-methoxyimidazo[1,2-c]quinazolin-2-yl)((1S,4S)-2-oxa-5-azabicyclo[2.2.1]heptan-5-yl)methanone]

Second part, the compound before the results:

SMILES | Ki [nM]
Nc1nc2c(F)cccc2c2nc(Cn3cc(-c4cc(C(F)(F)F)cc(C(F)(F)F)c4)nn3)cn12 [Ex-94, 2-((4-(3,5-bis(trifluoromethyl)phenyl)-1H-1,2,3-triazol-1-yl)methyl)-7-fluoroimidazo[1,2-c]quinazolin-5-amine] | 150
Nc1nc2c(F)cccc2c2nc(Cc3ccccc3CN3CCOCC3)cn12 [Ex-35, 7-fluoro-2-(2-(morpholinomethyl)benzyl)imidazo[1,2-c]quinazolin-5-amine] | 6
Nc1nc2c(F)cccc2c2nc(Cc3ccnc(N4CCN(c5nc6ccccc6o5)CC4)c3)cn12 [Ex-63, 2-((2-(4-(benzo[d]oxazol-2-yl)piperazin-1-yl)pyridin-4-yl)methyl)-7-fluoroimidazo[1,2-c]quinazolin-5-amine] | 102
Nc1nc2c(F)cccc2c2nc(Cc3ccc(C(=O)NCCN4CCOCC4)cc3)cn12 [Ex-90, 4-((5-amino-7-fluoroimidazo[1,2-c]quinazolin-2-yl)methyl)-N-(2-morpholinoethyl)benzamide] | 66
Nc1nc2c(F)cccc2c2nc(-c3ccccc3)cn12 [Ex-106, 7-fluoro-2-phenylimidazo[1,2-c]quinazolin-5-amine] | 7.1
Cn1c(NC(=O)c2ccc(Cc3cn4c(N)nc5c(F)cccc5c4n3)cc2)nc2ccccc21 [Ex-86, 5-amino-7-fluoro-2-(4-((1-methyl-1H-benzo[d]imidazol-2-yl)carbamoyl)benzyl)imidazo[1,2-c]quinazolin-6-ium formate] | 44
COc1cccc2c1nc(N)n1cc(CNCc3cccnc3)nc21 [Ex-145, 7-methoxy-2-(((pyridin-3-ylmethyl)amino)methyl)imidazo [1,2-c]quinazolin-5-amine] | 28
Nc1nc2c(F)cccc2c2nc(C(=O)NCC(c3cccnc3)N3CCOCC3)cn12 (stereo not drawn) [Ex-166, 5-amino-7-fluoro-N-(2-morpholino-2-(pyridin-3-yl)ethyl)imidazo[1,2-c]quinazoline-2-carboxamide] | 1400
COc1cccc2c1nc(N)n1cc(CNCc3ccccc3)nc21 [Ex-143, 2-((benzylamino)-methyl)-7-methoxy-imidazo[1,2-c]-quinazolin-5-amine] | 4
COc1cccc2c1nc(N)n1cc(C(=O)N3CC(C)CC(C)C3)nc21 (stereo not drawn) [Ex-167, (5-amino-7-methoxyimidazo[1,2-c]quinazolin-2-yl)(3,5-dimethylpiperidin-1-yl)methanone] | 16
Nc1nc2c(F)cccc2c2nc(CN3CCOc4cccnc43)cn12 [Ex-118, 2-((2,3-dihydro-4H-pyrido[3,2-b][1,4]oxazin-4-yl)methyl)-7-fluoroimidazo[1,2-c]quinazolin-5-amine] | 3.9
CC(=O)Nc1ccc2c(c1)CCN(Cc1cn3c(N)nc4c(F)cccc4c3n1)C2 [Ex-128, N-(2-((5-amino-7-fluoroimidazo[1,2-c]quinazolin-2-yl)methyl)-1,2,3,4-tetrahydroisoquinolin-6-yl)acetamide] | 97
CC1(O)CCN(Cc2cn3c(N)nc4ccccc4c3n2)CC1 [Ex-109, 1-((5-aminoimidazo[1,2-c]quinazolin-2-yl)methyl)-4-methylpiperidin-4-ol] | 2460
Nc1nc2ccccc2c2nc(C(=O)NCc3cccc4cccnc34)cn12 [Ex-161, 5-amino-N-(quinolin-8-ylmethyl)-imidazo-[1,2-c]-quinazoline-2-carboxamide] | 39.4
COc1cccc2c1nc(N)n1cc(Cc3ccccc3)nc21 [Ex-01, 2-benzyl-7-methoxyimidazo[1,2-c]quinazolin-5-amine] | 0.4
Nc1nc2cc(F)ccc2c2nc(Cc3ccccc3)cn12 [Ex-07, 2-benzyl-8-fluoroimidazo[1,2-c]quinazolin-5-amine] | 4.6
N#Cc1ccc(N2CCc3c(Cc4cn5c(N)nc6c(F)cccc6c5n4)cccc3C2)nc1 [Ex-54, 6-(5-((5-amino-7-fluoroimidazo[1,2-c]quinazolin-2-yl)methyl)-3,4-dihydroisoquinolin-2(1H)-yl)nicotinonitrile] | 3.8
